According to the NIST ThermoML archive (doi:10.1016/j.jct.2014.02.018):
Values joined by “and” are separate entries in the source; they are usually repeats but may differ in a detail not shown here. Equal values may be shown once.

Details: Crystal, Calculated from knudsen effusion weight loss

O=c1[nH]cc(F)c(=O)[nH]1 [5-fluoro-2,4(1H,3H)-pyrimidinedione]
Details	vapor or sublimation pressure
411.14 K	0.000178 kPa and 0.000166 kPa and 0.000165 kPa
413.1 K	0.000207 kPa and 0.000197 kPa and 0.000198 kPa
415.14 K	0.000239 kPa and 0.000235 kPa and 0.000246 kPa
417.14 K	0.000261 kPa and 0.000283 kPa and 0.000278 kPa
419.14 K	0.000347 kPa and 0.000332 kPa and 0.000351 kPa
421.18 K	0.000418 kPa and 0.000401 kPa and 0.000406 kPa
423.16 K	0.000477 kPa and 0.000472 kPa and 0.000474 kPa
425.11 K	0.000588 kPa and 0.000561 kPa and 0.00058 kPa
427.16 K	0.000669 kPa and 0.000668 kPa
429.15 K	0.000836 kPa and 0.000794 kPa and 0.000829 kPa
431.11 K	0.001027 kPa and 0.001013 kPa and 0.000961 kPa
433.17 K	0.001185 kPa and 0.001148 kPa and 0.001135 kPa

Cn1cc(F)c(=O)n(C)c1=O [2,4(1H,3H)-pyrimidinedione, 5-fluoro-1,3-dimethyl-]
Details	vapor or sublimation pressure
317.18 K	8.39e-05 kPa and 8.8e-05 kPa and 8.46e-05 kPa
319.21 K	0.0001113 kPa and 0.0001195 kPa and 0.0001105 kPa
321.12 K	0.0001414 kPa and 0.0001372 kPa and 0.000135 kPa
323.18 K	0.0001684 kPa and 0.0001645 kPa and 0.0001712 kPa
325.22 K	0.00021 kPa and 0.0002051 kPa and 0.0002013 kPa
327.13 K	0.0002547 kPa and 0.0002583 kPa and 0.0002608 kPa
329.18 K	0.0003128 kPa and 0.0003165 kPa and 0.000333 kPa
331.22 K	0.0004074 kPa and 0.0004027 kPa and 0.0004159 kPa
333.12 K	0.0005058 kPa and 0.0004953 kPa and 0.0005012 kPa
335.17 K	0.0006116 kPa and 0.0006003 kPa and 0.0006128 kPa
337.24 K	0.0007507 kPa and 0.0007652 kPa and 0.0007436 kPa
339.14 K	0.0009104 kPa and 0.0009266 kPa and 0.0009283 kPa
